The values that follow come from patent US20190119204A1, “ROR GAMMA (RORy) MODULATORS” (Lead Pharma Holding B.V., priority 2016, published 2019).

Assay [1] relates to IL-17A production in anti-CD3/anti-CD28 stimulated peripheral blood mononuclear cells (PBMCs). The assay can be described thus: Peripheral blood mononuclear cell (PBMC) IL-17 assay. The conditions noted are these: 120 h, human PBMCs, 5 days, IL-17A AlphaLISA, average of 11 human donors, read-out: PBMC IL-17 assay pIC50 Average (converted). The assay is classed as cell-based. The procedure:
Examples 2-3 of the present application and example No.37 from WO2015/082533 were tested for their ability to inhibit the IL-17A production in anti-CD3/anti-CD28 stimulated peripheral blood mononuclear cells (PBMCs) isolated from human blood.
This assay is designed to measure the levels of IL-17A secreted from anti-CD3/anti-CD28 stimulated PBMCs with the aim of measuring the inhibition of RORγ mediated IL-17A production.
The assay medium consists of 90% RPMI 1640 (Lonza), 10% heat-inactivated fetal bovine serum (FBS, Lonza) and 100 U/mL penicillin/streptomycin solution.
Anti-CD3 antibody (BD Pharmingen) was diluted to 10 μg/ml in PBS (Lonza). 30 μL of 10 μg/ml anti-CD3 solution was added to the inner 60 wells of a 96-well cell culture treated U-bottom plate (Greiner). Plates were incubated overnight (16-24 hours) at 37° C. and 5% CO2. […]
After incubation, the plates were spun down at 1500 rpm for 4 minutes and the supernatant was collected. Subsequently, the IL-17A levels in the supernatants was determined using an IL-17A AlphaLISA kit (Perkin Elmer) according to the manufacturer's protocol.
The half maximum inhibitory concentration (IC50) values for the test compounds were calculated from the IL-17A signal using GraphPad Prism software (GraphPad Software).

The target of assay [2] is T1, hERG (human Ether-à-go-go-Related Gene) potassium channel (Homo sapiens, UniProt Q12809).
T1 construct: expressed in transfected cells
T1 sequence (Q12809 whole entry): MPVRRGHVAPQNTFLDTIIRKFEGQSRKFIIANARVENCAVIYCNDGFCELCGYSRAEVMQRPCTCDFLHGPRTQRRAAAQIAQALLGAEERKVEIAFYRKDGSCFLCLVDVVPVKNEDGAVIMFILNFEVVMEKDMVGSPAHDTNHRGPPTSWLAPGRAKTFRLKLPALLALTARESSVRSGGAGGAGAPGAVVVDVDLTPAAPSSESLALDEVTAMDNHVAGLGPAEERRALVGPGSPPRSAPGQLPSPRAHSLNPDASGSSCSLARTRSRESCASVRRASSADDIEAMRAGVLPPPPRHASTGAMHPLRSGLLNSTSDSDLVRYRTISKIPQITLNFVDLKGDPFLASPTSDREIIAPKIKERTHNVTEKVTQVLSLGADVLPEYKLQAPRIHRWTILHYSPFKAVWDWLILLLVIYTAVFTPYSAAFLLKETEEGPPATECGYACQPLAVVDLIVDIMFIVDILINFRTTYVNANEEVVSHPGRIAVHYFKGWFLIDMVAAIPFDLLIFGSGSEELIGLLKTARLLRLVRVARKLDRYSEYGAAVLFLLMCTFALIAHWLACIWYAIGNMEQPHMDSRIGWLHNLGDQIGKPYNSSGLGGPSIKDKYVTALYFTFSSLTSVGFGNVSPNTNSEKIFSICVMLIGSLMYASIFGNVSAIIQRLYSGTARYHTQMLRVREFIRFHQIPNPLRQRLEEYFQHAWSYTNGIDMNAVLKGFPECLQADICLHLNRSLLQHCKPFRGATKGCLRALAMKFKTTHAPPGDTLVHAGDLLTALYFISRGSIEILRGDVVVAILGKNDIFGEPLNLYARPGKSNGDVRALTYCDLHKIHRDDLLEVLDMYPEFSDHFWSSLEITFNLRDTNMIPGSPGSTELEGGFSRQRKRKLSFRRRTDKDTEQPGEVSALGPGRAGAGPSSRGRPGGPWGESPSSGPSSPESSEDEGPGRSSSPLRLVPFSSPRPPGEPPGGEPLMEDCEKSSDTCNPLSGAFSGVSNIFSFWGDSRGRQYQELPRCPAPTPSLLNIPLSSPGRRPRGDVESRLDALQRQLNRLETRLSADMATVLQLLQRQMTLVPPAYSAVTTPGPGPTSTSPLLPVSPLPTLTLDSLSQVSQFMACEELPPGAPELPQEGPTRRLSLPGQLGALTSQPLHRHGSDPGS
In words: hERG channel patch-clamp assay. The assay is classed as cell-based. The conditions noted are these: CHO cells stably expressing hERG, whole-cell patch-clamp, room temperature; read-out: hERG inhibition Assay IC50. As for the experimental part: The hERG assay, in which hERG is brought to expression in CHO cells, provides information of the interaction of a compound with the hERG channel. The amplitude of hERG potassium channel tail currents are recorded under control and the compound solution at different concentrations. Then the IC50 value is determined from the dose-response curve.
Examples 2-3 of the present application and example No. 37 of WO2015/082533 were tested in vitro against the hERG (human Ether-à-go-go-Related Gene) potassium channel.
Frozen CHO (Chinese hamster ovary) cells stably expressing hERG channels were thawed and seeded on glass coverslips in petri dishes. Cells were cultured in HAM's F-12 media supplemented with 10% fetal bovine serum, 100 IU/mL penicillin, 100 μg/mL streptomycin and 500 μg/mL G418 (Invitrogen, Carlsbad, Calif.) in an atmosphere of 95% air/5% CO2 at 37° C. CHO cells were ready for patch-clamping after culture for 1-5 days. hERG currents were recorded at room temperature using the whole-cell patch-clamp technique with an Axopatch 200B amplifier (Molecular Devices, Sunnyvale Calif.). […] Currents were analyzed using the pCLAMP suite of software (Molecular Devices). […]
(In general: hERG is a cardiac potassium channel; its block is linked to QT prolongation.)

The next assay has as its target T2, CYP3A4 (Homo sapiens, UniProt P08684).
T2 construct: containing human liver microsomes (0.1 mg/mL); from tissue; host or cells: human liver microsomes
The assay can be described thus: CYP3A4 inhibition assay. The assay is classed as in vitro ADME. The settings on record: human liver microsomes. As for the experimental part: In the CYP3A4 inhibition assay, in vitro IC50 of a test compound as direct inhibitor against CYP3A4 is determined, by measuring the inhibition of the turn-over of probe substrates of CYP3A4 (Midazolam and Testosterone) to their specific metabolites i.e., 1′-Hydroxymidazolam, 6β-Hydroxytestosterone, in human liver microsomes.
Examples 2-3 of the present application and example No.37 from WO2015/082533 were tested for CYP3A4 inhibition using two different probes: midazolam and testosterone.
Test compound dissolved in DMSO at selected concentrations was added to a phosphate buffer (50 mM, pH 7.4) containing human liver microsomes (0.1 mg/mL), MgCl (6 mM) and EDTA (0.5 mM) and CYP3A probe substrate, either midazolam (3 μM). Test compound was evaluated at the concentrations 1, 3, 10 and 30 μM and the final DMSO concentration in the incubation was 0.5%. After addition of […] NADPH the mixture was incubated at 37° C. for 10 min (midazolam) or 30 min (testosterone). The reaction was terminated by addition of cold CH3CN containing internal standard, centrifuged and formation of the CYP3A specific metabolite (either 1′-hydroxymidazolam or 6-β-hydroxytestosterone) was quantified by UPLC-MS/MS. The relative CYP3A activity at each test concentration was calculated and IC50 values determined using XLfit.
Background: Microsomes from liver hold many membrane-bound enzymes, among them those of drug oxidation.

The mark [3] stands for this setting: midazolam probe, read-out: CYP3A4 inhibition Assay IC50, Midazolam probe.
Setting [4] is: testosterone probe, read-out: CYP3A4 inhibition Assay IC50, Testosterone probe.

Like-named read-outs stand apart in the source and are kept apart here.

T2 sequence (P08684 whole entry): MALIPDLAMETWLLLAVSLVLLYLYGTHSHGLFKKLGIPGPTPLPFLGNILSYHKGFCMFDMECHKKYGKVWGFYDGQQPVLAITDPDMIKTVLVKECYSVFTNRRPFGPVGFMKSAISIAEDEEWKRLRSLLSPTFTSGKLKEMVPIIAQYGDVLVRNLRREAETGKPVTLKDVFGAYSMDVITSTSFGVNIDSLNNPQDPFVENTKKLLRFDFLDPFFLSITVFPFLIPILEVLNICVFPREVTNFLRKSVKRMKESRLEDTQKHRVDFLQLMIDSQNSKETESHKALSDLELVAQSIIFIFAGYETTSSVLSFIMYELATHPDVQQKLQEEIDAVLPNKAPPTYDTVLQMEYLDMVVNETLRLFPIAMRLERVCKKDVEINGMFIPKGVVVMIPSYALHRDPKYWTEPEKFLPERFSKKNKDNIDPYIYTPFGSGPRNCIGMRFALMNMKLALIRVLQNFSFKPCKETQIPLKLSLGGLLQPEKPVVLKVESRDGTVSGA

On to `O=C(Cc1ccc(S(=O)(=O)CC2CC2)cc1)Nc1ccc([C@@](O)(C(F)F)C(F)(F)F)cc1` [Example 2, (+)-2-[4-(cyclopropylmethylsulfonyl)phenyl]-N-[4-[(1R)-1-(difluoromethyl)-2,2,2-trifluoro-1-hydroxy-ethyl]phenyl]acetamide], for which the IC50 was 0.0631 µM in assay [1], 14.2 µM in assay [2], 24 µM on CYP3A4 (setting [3]) and 13 µM at CYP3A4 (setting [4]).

For `O=C(Cc1ccc(S(=O)(=O)CC2CC2)cc1)Nc1ccc([C@](O)(C(F)F)C(F)(F)F)cc1` [Example 3, (−)-2-[4-(cyclopropylmethylsulfonyl)phenyl]-N-[4-[(1S)-1-(difluoromethyl)-2,2,2-trifluoro-1-hydroxy-ethyl]phenyl]acetamide], the IC50 in assay [1] is 0.0251 µM; in assay [2], 11.2 µM; at CYP3A4 (setting [3]), above 30 µM; at CYP3A4 (setting [4]), 16 µM.
